Assay results reported in ChEMBL document CHEMBL1201862, “PubChem BioAssay data set” (2004).
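In this assay, cells in 96-well plates receive the compound at five concentrations for 48 hours. Endpoints are linearly interpolated between the surrounding concentrations. Here, GI50 denotes the concentration required for 50% inhibition of growth.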 Active and inactive are the calls of the source. Rule as the data show it: active = GI50 up to about 1.1 µM and inactive = higher.

How the values were obtained:
Test in all cases: NCI-60 cell line screen, 48 h
HOP-62 = system: HOP-62
ACHN = system: ACHN
SK-MEL-2 = system: SK-MEL-2
SK-MEL-28 = system: SK-MEL-28
786-0 = system: 786-0
COLO 205 = system: COLO 205
Malme-3M = system: Malme-3M
UACC-257 = system: UACC-257
MOLT-4 = system: MOLT-4
SF-295 = system: SF-295
SW-620 = system: SW-620
NCI-H522 = system: NCI-H522
HCT-116 = system: HCT-116
EKVX = system: EKVX
NCI-H460 = system: NCI-H460
OVCAR-5 = system: OVCAR-5
SK-MEL-5 = system: SK-MEL-5
LOX IMVI = system: LOX IMVI
RPMI-8226 = system: RPMI-8226
MCF7 = system: MCF7

Row | Compound | GI50 (HOP-62) | GI50 (ACHN) | GI50 (SK-MEL-2) | GI50 (SK-MEL-28) | GI50 (786-0) | GI50 (COLO 205) | GI50 (Malme-3M) | GI50 (UACC-257) | GI50 (MOLT-4) | GI50 (SF-295) | GI50 (SW-620) | GI50 (NCI-H522) | GI50 (HCT-116) | GI50 (EKVX) | GI50 (NCI-H460) | GI50 (OVCAR-5) | GI50 (SK-MEL-5) | GI50 (LOX IMVI) | GI50 (RPMI-8226) | GI50 (MCF7)
1 | COc1cc(/C=C2\C[C@H]3[C@@H]4CCc5cc(O)ccc5[C@H]4CC[C@]3(C)C2=O)cc(OC)c1OC | 12.4 µM (inactive) | 15.5 µM (inactive) | 14 µM (inactive) | 11.8 µM (inactive) | 15.6 µM (inactive) | 16.7 µM (inactive) | 2.53 µM (inactive) | 10.8 µM (inactive) | 11.1 µM (inactive) | 12.6 µM (inactive) | 16.7 µM (inactive) | 1.83 µM (inactive) | 13.4 µM (inactive) | 10.1 µM (inactive) | 45.2 µM (inactive) | 17.7 µM (inactive) | 4.31 µM (inactive) | 15.5 µM (inactive) | 14.4 µM (inactive) | 52.6 µM (inactive)
2 | O=C(CC(O)c1cccnc1)CC(O)c1cccnc1 (stereo not given) | 21.9 µM (inactive) | 17.8 µM (inactive) | 18.9 µM (inactive) | 19.5 µM (inactive) | 16.3 µM (inactive) | 14.1 µM (inactive) | 18.4 µM (inactive) | 18.1 µM (inactive) | 3.49 µM (inactive) | 15.4 µM (inactive) | 4.97 µM (inactive) | 13.4 µM (inactive) | 2.04 µM (inactive) | 20.9 µM (inactive) | 19.7 µM (inactive) | 24.2 µM (inactive) | 16.1 µM (inactive) | 5.18 µM (inactive) | 3.29 µM (inactive) | 4.34 µM (inactive)
3 | N=C(N)N/N=C/c1c(-c2ccc(Cl)c([N+](=O)[O-])c2)nc2sc(Cl)cn12 | 3.85 µM (inactive) | 1.98 µM (inactive) | 1.69 µM (inactive) | 1.94 µM (inactive) | 3.15 µM (inactive) | 1.64 µM (inactive) | 2.84 µM (inactive) | 1.91 µM (inactive) | 1.63 µM (inactive) | 2.2 µM (inactive) | 2.2 µM (inactive) | 1.51 µM (inactive) | 3.38 µM (inactive) | 2.83 µM (inactive) | 2.7 µM (inactive) | 4.17 µM (inactive) | 4.07 µM (inactive) | 2.44 µM (inactive) | 2.99 µM (inactive) | 2.39 µM (inactive)
4 | C#CC1(O)C(COP(=O)(O)OC(COCCCCCCCCCCCCCCCCCC)COP(=O)(O)OCC2OC(n3cc(C)c(=O)[nH]c3=O)CC2N=[N+]=[N-])OC(n2ccc(N)nc2=O)C1O (stereo not given) | 1.82 µM (inactive) | 0.432 µM (active) | 0.382 µM (active) | 2.31 µM (inactive) | 0.706 µM (active) | 0.512 µM (active) | 1.66 µM (inactive) | 3.77 µM (inactive) | 0.347 µM (active) | 0.221 µM (active) | 0.453 µM (active) | 0.083 µM (active) | 0.105 µM (active) | 5.25 µM (inactive) | 0.0843 µM (active) | 3.28 µM (inactive) | 2.75 µM (inactive) | 0.224 µM (active) | 0.0644 µM (active) | 0.122 µM (active)
5 | CC(C)(C)OC(=O)NCCC(=O)NC1(c2cc3ccccc3s2)CCCCC1 | 18.4 µM (inactive) | 24.5 µM (inactive) | 18 µM (inactive) | 19.1 µM (inactive) | 17.5 µM (inactive) | 17.5 µM (inactive) | 21.5 µM (inactive) | 19.1 µM (inactive) | 10.9 µM (inactive) | 18.4 µM (inactive) | 22.6 µM (inactive) | 12.5 µM (inactive) | 13.9 µM (inactive) | 20.9 µM (inactive) | 14.8 µM (inactive) | 19.7 µM (inactive) | 13.1 µM (inactive) | 18.2 µM (inactive) | 0.759 µM (active) | 17.5 µM (inactive)
6 | COC(=O)C1CCC(=O)N1C(c1ccc(OC)cc1)c1ccc2c(c1)OCO2 (stereo not given) | 53.2 µM (inactive) | 97.9 µM (inactive) | 43.7 µM (inactive) | 57.1 µM (inactive) | 62.8 µM (inactive) | 37.9 µM (inactive) | 45.5 µM (inactive) | 39.1 µM (inactive) | 36.3 µM (inactive) | 17 µM (inactive) | 33.5 µM (inactive) | 22.4 µM (inactive) | 29 µM (inactive) | > 100 µM (inactive) | 40.4 µM (inactive) | 50 µM (inactive) | 24.7 µM (inactive) | 50.4 µM (inactive) | 43.3 µM (inactive) | 36.7 µM (inactive)
7 | COc1ccc(NC(C)=O)cc1N1C(=O)/C(=C\c2cc(OC)c(OC)c(OC)c2)S(=O)(=O)C1c1ccccc1 (stereo not given) | 78.2 µM (inactive) | 70.5 µM (inactive) | > 100 µM (inactive) | 39.3 µM (inactive) | 72.9 µM (inactive) | 39 µM (inactive) | 78.3 µM (inactive) | 89.5 µM (inactive) | 22 µM (inactive) | 55 µM (inactive) | 50.4 µM (inactive) | 45.5 µM (inactive) | 29.3 µM (inactive) | 23.5 µM (inactive) | 58.9 µM (inactive) | 23.5 µM (inactive) | 44.8 µM (inactive) | 68.1 µM (inactive) | 65.8 µM (inactive) | 33 µM (inactive)
8 | CC(C)/C(Cl)=N\OC(=O)Nc1ccc(C#N)cc1 | 17.5 µM (inactive) | 6.95 µM (inactive) | 11.8 µM (inactive) | 12.1 µM (inactive) | 5.12 µM (inactive) | 1.79 µM (inactive) | 2.62 µM (inactive) | 12.3 µM (inactive) | 1.92 µM (inactive) | 19 µM (inactive) | 1.81 µM (inactive) | 1.75 µM (inactive) | 5 µM (inactive) | 2.58 µM (inactive) | 17.3 µM (inactive) | 15.1 µM (inactive) | 5.11 µM (inactive) | 3.3 µM (inactive) | 2.56 µM (inactive) | 9.04 µM (inactive)
9 | COc1ccc2nc3cc([N+](=O)[O-])ccc3c(Nc3ccc(S(=O)(=O)Nc4ncccn4)cc3)c2c1 | > 64.9 µM (inactive) | 28.8 µM (inactive) | > 43.4 µM (inactive) | > 85.5 µM (inactive) | 67 µM (inactive) | 40.3 µM (inactive) | 48.3 µM (inactive) | > 71.1 µM (inactive) | > 20.2 µM (inactive) | 99.5 µM (inactive) | > 76.7 µM (inactive) | > 71.1 µM (inactive) | 40.6 µM (inactive) | > 100 µM (inactive) | 61.5 µM (inactive) | > 100 µM (inactive) | 41.6 µM (inactive) | > 73.8 µM (inactive) | 14.5 µM (inactive) | 15.3 µM (inactive)
10 | Cc1cc2c(cc1C)[n+]([O-])c(C(=O)N1CCN(c3ccc([N+](=O)[O-])cc3)CC1)c(C)[n+]2[O-] | 12.8 µM (inactive) | 2.84 µM (inactive) | 38.5 µM (inactive) | > 100 µM (inactive) | 14.3 µM (inactive) | > 100 µM (inactive) | > 100 µM (inactive) | > 100 µM (inactive) | > 100 µM (inactive) | 16.1 µM (inactive) | > 100 µM (inactive) | 75.3 µM (inactive) | 28.9 µM (inactive) | 24.4 µM (inactive) | 22.9 µM (inactive) | 62.8 µM (inactive) | 74.6 µM (inactive) | 90.2 µM (inactive) | > 100 µM (inactive) | > 100 µM (inactive)
11 | Cn1c2ccccc2c2c3c(c4c5ccccc5n(C)c4c21)C(=O)c1ccccc1C3=O | 31.1 µM (inactive) | 28.2 µM (inactive) | 40.3 µM (inactive) | > 100 µM (inactive) | 14.1 µM (inactive) | 57.7 µM (inactive) | 29.5 µM (inactive) | 79.6 µM (inactive) | > 100 µM (inactive) | 44.1 µM (inactive) | 79.1 µM (inactive) | 18.9 µM (inactive) | 30.1 µM (inactive) | 44.9 µM (inactive) | 64.1 µM (inactive) | > 100 µM (inactive) | 56 µM (inactive) | 37.3 µM (inactive) | 70 µM (inactive) | 67.1 µM (inactive)
12 | CN1CCC2(CC1)SC[C@H]1C(=O)N(c3ccc(Cl)cc3)C(=O)N12 | > 100 µM (inactive) | 25.9 µM (inactive) | > 100 µM (inactive) | > 100 µM (inactive) | > 100 µM (inactive) | > 100 µM (inactive) | > 100 µM (inactive) | > 100 µM (inactive) | > 100 µM (inactive) | > 100 µM (inactive) | > 100 µM (inactive) | > 100 µM (inactive) | > 100 µM (inactive) | > 100 µM (inactive) | > 100 µM (inactive) | > 100 µM (inactive) | > 100 µM (inactive) | > 100 µM (inactive) | > 100 µM (inactive) | > 100 µM (inactive)
13 | CN(CCCN=C=S)CCCN1c2ccccc2CCc2ccccc21 | 1.83 µM (inactive) | 1.75 µM (inactive) | 1.86 µM (inactive) | 2.06 µM (inactive) | 1.64 µM (inactive) | 1.66 µM (inactive) | 1.99 µM (inactive) | 2.03 µM (inactive) | 0.611 µM (active) | 1.71 µM (inactive) | 2.23 µM (inactive) | 1.95 µM (inactive) | 1.71 µM (inactive) | 1.88 µM (inactive) | 1.82 µM (inactive) | 1.81 µM (inactive) | 1.78 µM (inactive) | 1.88 µM (inactive) | 1.87 µM (inactive) | 1.59 µM (inactive)
14 | Clc1ccc(Cc2nc3cc(Cl)c(Cl)cc3n2CC2CCCN3CCCCC23)cc1Cl (stereo not given) | 9.14 µM (inactive) | 4.47 µM (inactive) | 6.34 µM (inactive) | 2.99 µM (inactive) | 2.99 µM (inactive) | 1.94 µM (inactive) | 1.79 µM (inactive) | 2.88 µM (inactive) | 4.34 µM (inactive) | 3.37 µM (inactive) | 1.48 µM (inactive) | 1.74 µM (inactive) | 3.04 µM (inactive) | 3.28 µM (inactive) | 3.1 µM (inactive) | 3.13 µM (inactive) | 1.85 µM (inactive) | 2.44 µM (inactive) | 4.13 µM (inactive) | 2.38 µM (inactive)
